Here are results for one compound from patent US20070066608A1, “Novel indole derivatives with an improved antipsychotic activity” (priority 2003, published 2007).

The target of assay [1] is T1, Human Dopamine D2L receptor (Homo sapiens, UniProt P14416).
T1 construct: expressed in transfected cells; host or cells: CHO cells
Briefly: Radioligand binding experiment for dopamine D2 receptor (hD2), [3H]Spiperone. The following applies: membranes of D2L receptor-transfected CHO cells, read-out: pIC50 D2 (converted). The protocol:
(§1) The interaction of the compounds of Formula (I) with dopamine-receptors, h5HT-transporter and h5HT1A receptor was assessed in in vitro radioligand binding experiments. In general, a low concentration of a radioligand with a high binding affinity for a particular receptor or transporter is incubated with a sample of a tissue preparation enriched in a particular receptor or transporter or with a preparation of cells expressing cloned human receptors in a buffered medium. During the incubation, the radioligand binds to the receptor or transporter. When equilibrium of binding is reached, the receptor bound radioactivity is separated from the non-bound radioactivity, and the receptor- or transporter-bound activity is counted The interaction of the test compounds with the receptor is assessed in competition binding experiments. Various concentrations of the test compound are added to the incubation mixture containing the receptor- or transporter preparation and the radioligand. The test compound in proportion to its binding affinity and its concentration inhibits binding of the radioligand.
Human Dopamine D2L receptor-transfected CHO cells were collected by scraping into ice-cold Tris-HCl buffer ([…], pH 7.4). The suspension was centrifuged (23 500×g, 10 min, 4° C.) and pellets stored at −70° C. until require. They were then thawed and briefly homogenised using an Ultra-Turrax T25 homogeniser prior to dilution to an appropriate protein concentration optimised for specific and non-specific binding. [^3H]Spiperone (NEN, specific activity˜70 Ci/mmol) was diluted in Tris-HCl assay buffer containing NaCl, CaCl2, MgCl2, KCI (50, 120, 2, 1, and 5 mM respectively, adjusted to pH 7.7 with HCl) at a concentration of 2 nmol/L. Prepared radioligand (50 μl) was then incubated (30 min, 37° C.) with membrane preparations pre-diluted to an appropriate protein concentration (400 μl), and with 50 μl of either the 10% DMSO control, Butaclamol (10^−6 mol/L final concentration), or compound of interest. Membrane-bound activity was detected by filtration through a Packard Filtermate harvester onto Unifilterplates, washing with ice-old Tris-HCl buffer (50 mM; pH8.0; 3×4 ml). Filters were allowed to dry before adding scintillation fluid and counting in a Topcount scintillation counter. % Specific bound and competition binding curves were calculated using S-Plus software (Insightful).

The target in assay [2] is T2, Human Dopamine D4 receptor (Homo sapiens, UniProt P21917).
T2 construct: expressed in transfected cells; host or cells: Sf9 cells
T2 sequence (P21917 1-419): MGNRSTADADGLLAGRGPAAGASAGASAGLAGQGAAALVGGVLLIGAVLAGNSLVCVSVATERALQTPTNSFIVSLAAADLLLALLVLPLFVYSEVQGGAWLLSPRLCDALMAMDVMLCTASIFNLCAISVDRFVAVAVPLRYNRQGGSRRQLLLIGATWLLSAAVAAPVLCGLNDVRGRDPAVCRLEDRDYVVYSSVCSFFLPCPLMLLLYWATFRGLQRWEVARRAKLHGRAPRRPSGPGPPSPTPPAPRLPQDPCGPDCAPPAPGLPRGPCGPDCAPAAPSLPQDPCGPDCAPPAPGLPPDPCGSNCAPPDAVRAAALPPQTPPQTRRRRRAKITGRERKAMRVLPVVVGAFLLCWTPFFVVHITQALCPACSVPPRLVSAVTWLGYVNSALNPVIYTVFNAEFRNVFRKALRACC
In words: Radioligand binding experiment for dopamine D4 receptor (hD4), [125I]Spiperone. Particulars: membranes of D4 receptor-transfected Sf9 cells, read-out: pIC50 D4 (converted). How it is done:
as §1, with “The test compound in proportion to its binding affinity and its concentration inhibits binding of the radioligand.” left out
Human Dopamine D4 receptor-transfected Sf9 cells were collected by scraping into ice-cold Tris-HCl buffer (50 mM, pH 7.4). […] Filters were allowed to dry before adding scintillation fluid and counting in a Topcount scintillation counter. % Specific bound and competition binding curves were calculated using S-Plus software (Insightful).

Assay [3] deals with T3, human 5HT transporter (Homo sapiens, UniProt P31645).
T3 construct: host or cells: HEK cells
In words: Binding experiment for 5-HT transporter, [3H]Paroxetine. The following applies: 5HT transporter-transfected HEK cells, [3H]Paroxetine binding; read-out: pIC50 5HT reuptake inhibition (converted). How it is done:
as §1
Frozen human 5HT transporter-transfected HEK cells (Perkin Elmer, Brussels) were thawed and briefly homogenised using an Ultra-Turrax T25 homogeniser prior to dilution to an appropriate protein concentration optimised for specific and non-specific binding. [^3H]Paroxetine (NEN, specific activity 20 Ci/mmol) was diluted in Tris-HCl assay buffer containing NaCl and KCl (50 mM 120 mM and 5 mM, respectively; pH 7.4) at a concentration of 5 nmol/L. Prepared radioligand (25 μl) was then incubated (60 min, 25° C.) with membrane preparations (200 μl) and with 25 μl of either 10% DMSO control, Imipramine (10^−6 mol/L final concentration), or compound of interest Membrane-bound activity was detected by filtration through a Packard Filtermate harvester onto Unifilterplates pre-soaked in 0.1% PEI, washing with ice-cold assay buffer (3×4 ml). Filters were dried prior to addition of scintillation fluid and then counting in a Topcount scintillation counter. % Specific bound and competition binding curves were calculated using S-Plus software (Insightful).

The target in assay [4] is T4, Human 5HT1A receptor (Homo sapiens, UniProt P08908).
T4 construct: expressed in transfected cells; host or cells: L929 cells (stably transfected)
T4 sequence (P08908 1-422): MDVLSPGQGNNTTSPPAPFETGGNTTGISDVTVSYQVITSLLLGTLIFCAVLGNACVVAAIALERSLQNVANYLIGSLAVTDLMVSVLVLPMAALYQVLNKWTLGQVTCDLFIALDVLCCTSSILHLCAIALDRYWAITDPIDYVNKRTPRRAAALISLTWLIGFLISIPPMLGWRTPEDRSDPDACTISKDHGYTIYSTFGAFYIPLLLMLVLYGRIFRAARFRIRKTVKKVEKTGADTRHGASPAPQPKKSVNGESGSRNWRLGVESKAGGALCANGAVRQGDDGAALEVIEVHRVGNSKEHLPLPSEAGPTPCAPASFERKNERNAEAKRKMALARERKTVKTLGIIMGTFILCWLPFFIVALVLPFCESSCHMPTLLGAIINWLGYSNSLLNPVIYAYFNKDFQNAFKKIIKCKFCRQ
Briefly: Binding experiment for 5-HT1A receptor, [3H]8OHDPAT. Particulars: membranes of 5HT1A receptor-transfected L929 cells, read-out: pIC50 5HT1A (converted). The protocol: as §1
Human 5HT1A receptor-transfected L929 cells were collected by scraping into ice-cold Tris-HCl buffer (50 mM, pH 7.4). The suspension was centrifuged (23 500×g, 10 min, 4° C.) and pellets stored at −70° C. until required. They were then thawed and briefly homogenised using an Ultra-Turrax T25 homogeniser prior to dilution to an appropriate protein concentration optimised for specific and non-specific binding. [^3H]8OHDPAT (NEN, specific activity 127 Ci/mmol) was diluted in Tris-HCl assay buffer containing CaCl2 (50 mM and 4 mM, respectively; pH 7.7) at a concentration of 5 nmol/L. Prepared radioligand (50 μl) was then incubated (30 min, 37° C.) with membrane preparations from L929 cells stably-transfected with the h5HT1A gene construct (400 μl) and with 50 μl of either the 10% DMSO control, spiroxatrine (10^−6 mol/L final concentration), or compound of interest. Membrane-bound activity was detected by filtration through a Packard Filtermate harvester onto Unifaltemplates, washing with ice-cold Tris-HCI buffer (3×4 ml), followed by drying. Scintillation fluid was added and membranes were counted in a Topcount scintillation counter. % Specific bound and competition binding curves were calculated using S-Plus software (Insightful).

T1 sequence (P14416 whole entry): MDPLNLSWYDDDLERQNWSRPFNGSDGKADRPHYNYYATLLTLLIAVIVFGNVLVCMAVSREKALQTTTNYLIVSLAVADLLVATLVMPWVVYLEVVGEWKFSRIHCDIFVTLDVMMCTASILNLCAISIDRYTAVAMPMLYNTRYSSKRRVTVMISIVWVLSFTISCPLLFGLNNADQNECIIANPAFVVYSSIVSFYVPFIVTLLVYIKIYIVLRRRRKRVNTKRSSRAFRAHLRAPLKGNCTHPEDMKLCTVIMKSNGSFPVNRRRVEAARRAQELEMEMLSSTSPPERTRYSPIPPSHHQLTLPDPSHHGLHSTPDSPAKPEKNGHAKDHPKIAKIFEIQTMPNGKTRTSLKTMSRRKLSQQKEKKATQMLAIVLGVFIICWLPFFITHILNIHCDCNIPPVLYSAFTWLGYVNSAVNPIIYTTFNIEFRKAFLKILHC
T3 sequence (P31645 whole entry): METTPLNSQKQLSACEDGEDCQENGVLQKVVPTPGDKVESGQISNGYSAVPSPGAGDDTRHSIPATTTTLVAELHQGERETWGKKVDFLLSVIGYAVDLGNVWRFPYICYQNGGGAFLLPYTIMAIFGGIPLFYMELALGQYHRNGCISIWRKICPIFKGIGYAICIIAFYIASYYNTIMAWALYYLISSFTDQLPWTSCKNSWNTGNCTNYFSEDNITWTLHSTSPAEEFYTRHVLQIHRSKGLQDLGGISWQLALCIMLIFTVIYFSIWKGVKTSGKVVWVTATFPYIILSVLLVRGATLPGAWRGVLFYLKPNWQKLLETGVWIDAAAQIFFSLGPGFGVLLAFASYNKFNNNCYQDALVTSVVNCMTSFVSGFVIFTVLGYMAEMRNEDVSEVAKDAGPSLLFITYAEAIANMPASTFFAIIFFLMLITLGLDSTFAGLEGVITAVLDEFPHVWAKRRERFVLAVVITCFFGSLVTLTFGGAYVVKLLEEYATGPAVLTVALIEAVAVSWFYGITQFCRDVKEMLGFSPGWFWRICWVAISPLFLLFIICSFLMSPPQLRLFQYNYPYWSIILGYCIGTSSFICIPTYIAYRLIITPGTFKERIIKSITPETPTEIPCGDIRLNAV

Regarding `Fc1ccc2[nH]cc(C3=CCN(CC4COc5ccncc5O4)CC3)c2c1` (stereo not shown) [Compound 4], the IC50 in assay [1] is 158 nM; in assay [2] it was 50.1 nM; in assay [3], 50.1 nM; in assay [4] it was 126 nM.
